Measured values as given in patent US4839380A, “1-Thiocarbamoylmethylpyrrolidine-2-thione, medical compositions of, and anti-hypoxic and nootropic use thereof” (priority 1988, dated 1989).

Legend:
mice [1] = assay: Lifespan of mice under acute hypoxic hypoxia with hypercapnia (sealed chamber); assay type: in vivo, mice (nondescript white male)
Experimental: (§1) The antihypoxic effect of the compound according to the present invention was studied in comparison with pyracetam on various experimental models of hypoxic states in experiments on mice and rats. The compound according to the present invention and pyracetam were administered intraperitoneally in the form of an aqueous emulsion prepared with Tween-80.
Tests were carried out on a model of an acute hypoxic hypoxia with hypercapnia.
The tests were conducted using 540 nondescript while male mice with a mass of 20-22 g. Each mouse was separately placed into a sealed chamber (with the capacity of 250 ml) 60 minutes after administration of the compound according to the present invention in the doses of 50, 100, 250, 500 and 750 mg/kg. The control animals were issued with an isotonic solution of sodium chloride. The antihypoxic activity was assessed by the lifespan of the mice in the sealed chamber (in minutes).

mice [2] = assay: Acute hypobaric hypoxia: lifespan of mice at the height of 11,000 m; assay type: in vivo, mice (male, tetrahybrids)
Experimental: as §1
The studies were carried out on a model of an acute hypobaric hypoxia.
An acute […] hypoxia was modelled in a flow-type barometric chamber at an ambient temperature of 17°-20° C. with absorption of carbon dioxide and water.
The test animals (male mice, tetrahybrids) with a mass of 15-22 g of the same generation were "lifted" (under simulation conditions) at the mean speed of 50 m/sec to the height of 11,000 m at which the lifespan (in minutes) for the same series of experiments was evaluated. Furthermore, the mice were discretely lifted at the same speed to the height of 10,000 m where they stayed for 1 minute and then to the height of 11,000 m, where they again were kept for 1 minute and so on, till their death for the determination of the height "ceiling", The animals' death was adjudicated by the occurrence of an agonal breathing against the background of convulsions. The total number of mice employed in the experiments was 200.
As the comparison preparation pracetam was used. The compound according to the present invention and pyracetam were administered one hour before the "lift".

mice [3] = assay: Acute normobaric hypoxia: lifespan of mice; assay type: in vivo
Experimental: as §1
(§2) Investigations were also carried out with a model of an acute normobaric hypoxia.
(§3) An acute normobaric hypoxia was simulated in a flow-type barometric chamber at an ambient temperature of 17°-22° C. with absorption of carbon dioxide and water. A gas mixture ([…] and 3% of O2) was admitted into the barometric chamber at the rate of 10 1/min. The lifespan of test animals (mice, rats) in the chambers was recorded since the moment of the mixture admission into the chamber till the moment of perdition of the animals which was adjudicated by an agonal breathing against the background of convulsions. The modes of administration of the preparations, species of animals and analysis of the results of the experiments are similar to those described hereinbefore for the case of an acute hypobaric hypoxia. The experiments were carried out using 50 mice and 20 rats.

rats [4] = assay: Acute normobaric hypoxia: lifespan of rats; assay type: in vivo
Experimental: as §1, §2, §3

mice [5] = assay: Acute histotoxic hypoxia (sodium nitroprusside): lifespan of mice; assay type: in vivo
Experimental: as §1
The studies were carried out using a model of an acute histotoxic hypoxia.
An acute histotoxic hypoxia was induced by way of a subcutaneous injection of sodium nitroprusside in the dose of 20 mg/kg. This mode of administration results in a 100% death of mice in 15-25 minutes after administration of the preparation. The lifespan of the mice was adjudicated after administration of sodium nitroprusside against the background of the test compounds (the compound according to the present invention and pyracetam) which was recorded by the arrest of breathing and heart. In this series of experiments 40 animals altogether were used.

rats' cerebral cortex = assay: Acute repeating anoxia (asphyxial hypoxia): electrical activity of the cerebral cortex of rats; assay type: in vivo
Experimental: The studies were conducted on a model of an acute repeating anoxia.
The studies were carried out in experiments on rats with a mass of 180-200 g with nichrome electrodes in the brain (cerebral) cortex; after tracheostomy the animals were connected to the artificial-breathing apparatus. Anoxia was induced by repeatedly switching-off the breathing for 90, 120, 150 and 180 seconds with 10-minutes' intervals therebetween. Electrocardiogram and electrocorticogram were recorded. 53 rats altogether were used in the experiments. The antihypoxic activity of the compound according to the present invention in comparison with pyracetam was assessed by the following parameters:
I--time till the disappearance of a cortex electrical activity after discontinuation of oxygen supply;
II--time till the appearance of an electrocorticogram after renewal of breathing;
III--total time of electrical "silence" of the cortex
for each of the successive anoxiae.
The results of the experiments were statistically evaluated using Student's T-criterion.

rats [6] = assay: Learning speed and performing of electrodefensive conditioned reflex of avoidance; assay type: in vivo, rats (nondescript male)
From the text: The study of the compound according to the present invention for the speed of learning and performing the produced conditioned reflux was effected in experiments on rats using the method of electrodefensive conditioned reflexes of avoidance.
The study of the effect on the learning speed and fulfilment of the elaborated conditioned reflex was effected on 40 nondescript male rats with a mass of 150170 g (4 groups of 10 rats in each) by the method of electrodefensive conditioned reflexes. Conditioned reflexes were trained in all rats for ringing used as a conditional irritation signal supported by a non-conditional irritating agent--electric current (40-50 V) supplied to an electrified floor of a conditioned-reflex chamber. As the criterion for the elaboration of the conditioned reflex the rat's jump onto a stand in response to switching-on of a bell during the first 10 seconds after the beginning of the sound was assumed.
All rats, against the background of elaboration of conditioned reflexes, were administered over 3 weeks (5 times a week) with: the first group--the compound according to the present invention in the dose of 250 mg/kg; the second and third group--pyracetam in the doses of 500 and 1,000 mg/kg; and the fourth group--control--isotonic solution of sodium chloride. The administration was effected intraperiotoneally 24 hours before the experiment.

[7] = 1st anoxia, 90 seconds, 250 mg/kg
[8] = 1st anoxia, 90 seconds, 1.000 mg/kg

## NC(=S)CN1CCCC1=S [Compound of the present invention, 1-thiocarbamylmethylpyrrolidine-2-thione]
Mice [1]; 100 mg/kg i.p.
  lifespan of mice under acute hypoxic hypoxia: 56.3 min
Mice [1]; 250 mg/kg i.p.
  lifespan of mice under acute hypoxic hypoxia: 60.3 min
Mice [1]; 500 mg/kg i.p.
  lifespan of mice under acute hypoxic hypoxia: 95.2 min
Mice [1]; 750 mg/kg
  extension of mice lifespan as compared to the control: 4 times
  increase of mice lifespan as compared to the control: 324.5%
Mice [1]; 750 mg/kg i.p.
  lifespan of mice under acute hypoxic hypoxia: 119.2 min
Mice [1]; Mus musculus, ip, read-out: dose beginning with which resistance to acute oxygen insufficiency is enhanced and lifespan extended
  minimal effective dose: 100 mg/kg
Mice [2]; 100 mg/kg
  lifespan of mice at the height of 11,000 m: 12.58 ± 8.64 min
  lifespan of mice at the height of 11,000 m, % (control = 100%): 206.2 ± 59.7%
Mice [2]; 250 mg/kg
  lifespan of mice at the height of 11,000 m: 19.97 ± 4.93 min
  lifespan of mice at the height of 11,000 m, % (control = 100%): 327.4 ± 80.8%
Mice [2]; 500 mg/kg
  lifespan of mice at the height of 11,000 m: 30.0 ± 0 min
  lifespan of mice at the height of 11,000 m, % (control = 100%): 491.8 ± 0.0%
Mice [2]; versus pyracetam
  superiority to pyracetam in effect on the lifespan duration at 11,000 m: 3-4 times
Mice [3]; mice, 250 mg/kg
  increase of resistance of mice to acute normobaric hypoxia as compared to the control: 4.5 times
  lifespan at an acute normobaric hypoxia, mice: 22.21 ± 3.23 min
  lifespan at an acute normobaric hypoxia, mice, % (control = 100%): 469.5 ± 68.3%
Mice [3]; mice, versus pyracetam at 500 mg/kg
  superiority to pyracetam in effectiveness, mice: 3.2 times
Mice [3]; versus pyracetam at 250 mg/kg
  superiority to pyracetam in effectiveness: 5 times
Rats [4]; 250 mg/kg
  increase of resistance of rats to acute normobaric hypoxia as compared to the control: 1.5 times
  lifespan at an acute normobaric hypoxia, rats: 27.38 ± 7.07 min
  lifespan at an acute normobaric hypoxia, rats, % (control = 100%): 147.2 ± 38.0%
Rats [4]; versus pyracetam at 500 mg/kg
  superiority to pyracetam in effectiveness, rats: 1.5 times
Mice [5]; 250 mg/kg
  lifespan of mice at an acute histotoxic hypoxia: 24.2 ± 2.46 min
  lifespan of mice at an acute histotoxic hypoxia, % (control = 100%): 124.1 ± 12.6%
Mice [5]; 500 mg/kg
  lifespan of mice at an acute histotoxic hypoxia: 32.2 ± 4.95 min
  lifespan of mice at an acute histotoxic hypoxia, % (control = 100%): 165.5 ± 25.4%
Mice [5]; 500 mg/kg versus pyracetam 500 and 1,000 mg/kg
  superiority to pyracetam in effectiveness: 1.5 times
rats' cerebral cortex; 250 mg/kg
  Number of animals with retained electrocorticogram after the 1st anoxia: 44.0%
  time of recovery of the functional capacity of the brain: considerably reduced
rats' cerebral cortex; 250 mg/kg, especially first and second anoxiae
  extension of the time till disappearance of an electrocorticogram: ~2 times
rats' cerebral cortex; [7]
  I--time till the disappearance of a cortex electrical activity: 84.3 ± 1.3 s
  II--time till the appearance of an electrocorticogram after renewal of breathing: 3.7 ± 1.5 s
  III--total time of electrical "silence" of the cortex: 8.9 ± 3.5 s
rats' cerebral cortex; versus pyracetam
  recovery of electrical activity of the brain after the 4th anoxia, effectiveness versus pyracetam: 7 times
rats' cerebral cortex; versus pyracetam 1.000 mg/kg
  retention of the electrocorticogram after the first 90-seconds' anoxia, superiority to pyracetam: 3 times
Rats [6]; 250 mg/kg
  acceleration of elaboration and fixation of a conditioned reflex: about 2 times
  combinations of conditional and non-conditional irritation agents after which the reflex is fixed: 49-65 combinations
  lowering of the latent period of the conditioned reflex as compared to the control: more than 2 times
Rats [6]; 250 mg/kg, control 2.14±0.71 s
  latent period of the conditioned reflex of avoidance: 0.87 ± 0.32 s
Rats [6]; rats
  effective dose (learning and performing of conditioned response of avoidance in rats): 250 mg/kg

## NC(=O)CN1CCCC1=O [Pyracetam, 1-carbamidomethylpyrrolidone-2, reference compound]
Mice [1]; 100 mg/kg i.p.
  lifespan of mice under acute hypoxic hypoxia: 27.4 min
Mice [1]; 250 mg/kg i.p.
  lifespan of mice under acute hypoxic hypoxia: 33.5 min
Mice [1]; 500 mg/kg i.p.
  lifespan of mice under acute hypoxic hypoxia: 39.6 min
Mice [1]; 750 mg/kg i.p.
  lifespan of mice under acute hypoxic hypoxia: 34.4 min
Mice [1]; 2,000 mg/kg
  extension of mice lifespan as compared to the control: 60%
Mice [1]; 2000 mg/kg i.p.
  lifespan of mice under acute hypoxic hypoxia: 45.0 min
Mice [1]; 2000 mg/kg i.p., listed as pyracetam
  lifespan of mice under acute hypoxic hypoxia: 45 min
Mice [1]; column 8, dose printed "100" mg/kg (between 750 and 2000), i.p.
  lifespan of mice under acute hypoxic hypoxia: 41.4 min
Mice [2]; 100 mg/kg
  lifespan of mice at the height of 11,000 m: inactive
Mice [2]; 250 mg/kg
  lifespan of mice at the height of 11,000 m: 6.16 ± 0.72 min
  lifespan of mice at the height of 11,000 m, % (control = 100%): 101.0 ± 11.8%
Mice [2]; 500 mg/kg
  lifespan of mice at the height of 11,000 m: 8.13 ± 2.43 min
  lifespan of mice at the height of 11,000 m, % (control = 100%): 133.3 ± 39.9%
Mice [3]; mice, 250 mg/kg
  lifespan at an acute normobaric hypoxia, mice: 3.73 ± 0.254 min
  lifespan at an acute normobaric hypoxia, mice, % (control = 100%): 87.7 ± 5.97%
Mice [3]; mice, 500 mg/kg
  lifespan at an acute normobaric hypoxia, mice: 6.08 ± 0.744 min
  lifespan at an acute normobaric hypoxia, mice, % (control = 100%): 143.1 ± 17.5%
Rats [4]; 250 mg/kg
  lifespan at an acute normobaric hypoxia, rats: inactive
Rats [4]; 500 mg/kg
  lifespan at an acute normobaric hypoxia, rats: 17.3 ± 5.25 min
  lifespan at an acute normobaric hypoxia, rats, % (control = 100%): 93.0 ± 28.2%
Mice [5]; 1.000 mg/kg (= 1,000)
  lifespan of mice at an acute histotoxic hypoxia: 20.97 ± 1.31 min
  lifespan of mice at an acute histotoxic hypoxia, % (control = 100%): 107.6 ± 6.7%
Mice [5]; 250 mg/kg
  lifespan of mice at an acute histotoxic hypoxia: inactive
Mice [5]; 500 mg/kg
  lifespan of mice at an acute histotoxic hypoxia: 17.98 ± 1.49 min
  lifespan of mice at an acute histotoxic hypoxia, % (control = 100%): 92.2 ± 7.62%
rats' cerebral cortex; 1,000 mg/kg
  Number of animals with recovered electrocorticogram after the 4th anoxia: 14.3%
  Number of animals with retained electrocorticogram after the 1st anoxia: 12.5%
rats' cerebral cortex; 1,000 mg/kg, listed as pyracetam
  Number of animals with recovered electrocorticogram after the 4th anoxia: 15%
rats' cerebral cortex; [8]
  I--time till the disappearance of a cortex electrical activity: 76.7 ± 4.8 s
  II--time till the appearance of an electrocorticogram after renewal of breathing: 5.3 ± 0.2 s
  III--total time of electrical "silence" of the cortex: 17.8 ± 4.9 s
rats' cerebral cortex; 2nd anoxia (column 6; 120 seconds), 1.000 mg/kg
  I--time till the disappearance of a cortex electrical activity: 85.8 ± 7.3 s
rats' cerebral cortex; 2nd anoxia (column 7; 120 seconds), 1.000 mg/kg
  II--time till the appearance of an electrocorticogram after renewal of breathing: 21.8 ± 6.9 s
rats' cerebral cortex; 2nd anoxia (column 8; 120 seconds), 1.000 mg/kg
  III--total time of electrical "silence" of the cortex: 53.3 ± 12.0 s
rats' cerebral cortex; 3rd anoxia (column 9; 150 seconds), 1.000 mg/kg
  I--time till the disappearance of a cortex electrical activity: 95.0 ± 16.3 s
rats' cerebral cortex; 3rd anoxia (column 10; 150 seconds), 1.000 mg/kg
  II--time till the appearance of an electrocorticogram after renewal of breathing: 67.6 ± 42.I
rats' cerebral cortex; 3rd anoxia (column 11; 150 seconds), 1.000 mg/kg
  III--total time of electrical "silence" of the cortex: 131.2 ± 53.8 s
rats' cerebral cortex; 4th anoxia (column 12; 180 seconds), 1.000 mg/kg
  I--time till the disappearance of a cortex electrical activity: 79.4 ± 23.8 s
Rats [6]; 1.000 mg/kg
  effect on elaboration and fixation of a conditioned reflex: effect similar to that produced by the compound according to the present inventuion in the dose of 250 mg/kg
  latent period of the conditioned reflex of avoidance: 0.98 ± 0.29 s
Rats [6]; 500 mg/kg
  effect on elaboration and fixation of a conditioned reflex: inactive
